From patent US7160888B2, “[1,8]naphthyridin-2-ones and related compounds for the treatment of schizophrenia” (Warner Lambert Company LLC, priority 2003, dated 2007)

Target: D2 receptor (Homo sapiens, UniProt P14416)
Assay: [3H]Thymidine uptake assay for D2 intrinsic activity
Assay type: cell-based
Details: test compound 1 μM, 1 μM Quinpirole = 100% intrinsic activity

Chain of D2 receptor (P14416 whole entry): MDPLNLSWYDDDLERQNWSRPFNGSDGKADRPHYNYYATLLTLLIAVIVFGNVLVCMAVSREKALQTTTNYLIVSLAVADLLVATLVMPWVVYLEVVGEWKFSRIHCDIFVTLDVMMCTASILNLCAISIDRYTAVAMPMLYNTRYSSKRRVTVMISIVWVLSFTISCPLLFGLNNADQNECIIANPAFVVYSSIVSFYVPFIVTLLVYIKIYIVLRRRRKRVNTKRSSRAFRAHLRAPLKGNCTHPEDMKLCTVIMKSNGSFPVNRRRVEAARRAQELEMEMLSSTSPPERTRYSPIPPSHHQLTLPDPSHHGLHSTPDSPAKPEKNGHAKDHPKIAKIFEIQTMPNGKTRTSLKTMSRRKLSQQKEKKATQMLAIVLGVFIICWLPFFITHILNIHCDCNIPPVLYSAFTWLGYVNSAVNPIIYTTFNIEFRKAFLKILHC

For Cc1nc(OCCCCN2CCN(c3cccc4cccnc34)CC2)nc2[nH]c(=O)ccc12 [Example G15′, 4-Methyl-2-[4-(4-quinolin-8-yl-piperazin-1-yl)-butoxy]-8H-pyrido[2,3-d]pyrimidin-7-one], the Emax at 1 µM (Table 2) was 41%.
Work on CCOc1ccccc1N1CCN(CCCCOc2ccc3c(n2)NC(=O)CC3)CC1 [Example A20, 7-{4-[4-(2-Ethoxy-phenyl)-piperazin-1-yl]-butoxy}-3,4-dihydro-1H-[1,8]naphthyridin-2-one] yielded an Emax at 1 µM (Table 1) of 19%.
Work on CC(C)(CCCN1CCN(c2cccc3ccccc23)CC1)Oc1ccc2c(n1)NC(=O)CC2 [Example C8, 7-[1,1-Dimethyl-4-(4-naphthalen-1-yl-piperazin-1-yl)-butoxy]-3,4-dihydro-1H-[1,8]naphthyridin-2-one] yielded an Emax at 1 µM (Table 1) of 33%.
Molecule O=C1CCc2ccc(OCCCCN3CCN(c4cccc5cccnc45)CC3)nc2N1 [Example A34′, 7-[4-(4-Quinolin-8-yl-piperazin-1-yl)-butoxy]-3,4-dihydro-1H-[1,8]naphthyridin-2-one] has an Emax at 1 µM (Table 2) of 38%.
Work on CCN1CCCc2c1cccc2N1CCN(CCCCOc2ccc3ccc(=O)[nH]c3n2)CC1 [Example B29′, 7-{4-[4-(1-Ethyl-1,2,3,4-tetrahydro-quinolin-5-yl)-piperazin-1-yl]-butoxy}-1H-[1,8]naphthyridin-2-one] yielded an Emax at 1 µM (Table 2) of 26%.
Cc1nc(OCCCCN2CCN(c3cccc4ccccc34)CC2)nc2[nH]c(=O)ccc12 [Example H12, 4-Methyl-2-[4-(4-naphthalen-1-yl-piperazin-1-yl)-butoxy]-8H-pyrido[2,3-d]pyrimidin-7-one] gave an Emax at 1 µM (Table 1) of 34%.
In the case of O=C1CCc2ccc(OCCCCN3CCN(c4cccc(C(F)(F)F)c4)CC3)nc2N1 [Example A38, 7-{4-[4-(3-Trifluoromethyl-phenyl)-piperazin-1-yl]-butoxy}-3,4-dihydro-1H-[1,8]naphthyridin-2-one], the Emax at 1 µM (Table 1) is reported as 23%.
O=c1ccc2cnc(OCCCCN3CCN(c4cccc5c4OCC5)CC3)nc2[nH]1 [Example G4′, 2-{4-[4-(2,3-Dihydro-benzofuran-7-yl)-piperazin-1-yl]-butoxy}-8H-pyrido[2,3-d]pyrimidin-7-one] gave an Emax at 1 µM (Table 2) of 13%.
O=C1CCc2cc(F)c(OCCCCN3CCN(c4cccc(Cl)c4Cl)CC3)nc2N1 [Example E3, 7-{4-[4-(2,3-Dichloro-phenyl)-piperazin-1-yl]-butoxy}-6-fluoro-3,4-dihydro-1H-[1,8]naphthyridin-2-one] showed an Emax at 1 µM (Table 1) of 31%.
In the case of CC1(C)C(=O)Nc2nc(OCCCCN3CCN(c4cccc(Cl)c4Cl)CC3)ccc2C1=O [Example D14, 7-{4-[4-(2,3-Dichloro-phenyl)-piperazin-1-yl]-butoxy}-3,3-dimethyl-1H-[1,8]naphthyridine-2,4-dione], the Emax at 1 µM (Table 1) is reported as 3%.
Work on O=c1ccc2ccc(OCCCCN3CCN(c4cccc5c4OCC5)CC3)nc2[nH]1 [Example B8′, 7-{4-[4-(2,3-Dihydro-benzofuran-7-yl)-piperazin-1-yl]-butoxy}-1H-[1,8]naphthyridin-2-one] yielded an Emax at 1 µM (Table 2) of 21%.
Work on Cc1cccc(N2CCN(CCCCCc3ccc4c(n3)NC(=O)CC4)CC2)c1Cl [Example C10, 7-{5-[4-(2-Chloro-3-methyl-phenyl)-piperazin-1-yl]-pentyl}-3,4-dihydro-1H-[1,8]naphthyridin-2-one] yielded an Emax at 1 µM (Table 1) of 5%.
CN1Cc2ccc(OCCCCN3CCN(c4cccc5ccccc45)CC3)nc2NC1=O [Example F8, 3-Methyl-7-[4-(4-naphthalen-1-yl-piperazin-1-yl)-butoxy]-3,4-dihydro-1H-pyrido[2,3-d]pyrimidin-2-one] was tested, and the Emax at 1 µM (Table 1) was 15%.
Molecule CC1(C)CC(=O)Nc2nc(OCCCCN3CCN(c4cccc(C5CC5)n4)CC3)ccc21 [Example D22, 7-{4-[4-(6-Cyclopropyl-pyridin-2-yl)-piperazin-1-yl]-butoxy}-4,4-dimethyl-3,4-dihydro-1H-[1,8]naphthyridin-2-one] has an Emax at 1 µM (Table 1) of 42%.
Cc1cc(OCCCCN2CCN(c3cccc4ccccc34)CC2)nc2c1CCC(=O)N2 [Example E10, 5-Methyl-7-[4-(4-naphthalen-1-yl-piperazin-1-yl)-butoxy]-3,4-dihydro-1H-[1,8]naphthyridin-2-one] gave an Emax at 1 µM (Table 1) of 31%.
With CC1(C)CCc2cccc(N3CCN(CCCCOc4ccc5ccc(=O)[nH]c5n4)CC3)c2O1 [Example B3′, 7-{4-[4-(2,2-Dimethyl-chroman-8-yl)-piperazin-1-yl]-butoxy}-1H-[1,8]naphthyridin-2-one] the Emax at 1 µM (Table 2) was 50%.
CC(=O)c1c(F)cccc1N1CCN(CCCCOc2ccc3ccc(=O)[nH]c3n2)CC1 [Example B5, 7-{4-[4-(2-Acetyl-3-fluoro-phenyl)-piperazin-1-yl]-butoxy}-1H-[1,8]naphthyridin-2-one] showed an Emax at 1 µM (Table 1) of 2%.
O=C1CCc2cnc(OCCCCN3CCN(c4cccc5ccccc45)CC3)cc2N1 [Example I3, 7-[4-(4-Naphthalen-1-yl-piperazin-1-yl)-butoxy]-3,4-dihydro-1H-[1,6]naphthyridin-2-one] gave an Emax at 1 µM (Table 1) of 33%.
With CC(C)Oc1ccc(Cl)cc1N1CCN(CCCCOc2ccc3c(n2)NC(=O)CC3)CC1 [Example A25, 7-{4-[4-(5-Chloro-2-isopropoxy-phenyl)-piperazin-1-yl]-butoxy}-3,4-dihydro-1H-[1,8]naphthyridin-2-one] the Emax at 1 µM (Table 1) was 27%.
CC1(C)Cc2cccc(N3CCN(CCCCOc4ccc5c(n4)NC(=O)CC5)CC3)c2O1 [Example A3′, 7-{4-[4-(2,2-Dimethyl-2,3-dihydro-benzofuran-7-yl)-piperazin-1-yl]-butoxy}-3,4-dihydro-1H-[1,8]naphthyridin-2-one] showed an Emax at 1 µM (Table 2) of 37%.
O=c1ccc2ccc(OCCCCN3CCN(c4c(F)ccc5ccccc45)CC3)nc2[nH]1 [Example B54, 7-{4-[4-(2-Fluoro-naphthalen-1-yl)-piperazin-1-yl]-butoxy}-1H-[1,8]naphthyridin-2-one] gave an Emax at 1 µM (Table 1) of 15%.
With CN1C(=O)CCc2cccc(N3CCN(CCCCOc4ccc5ccc(=O)[nH]c5n4)CC3)c21 [Example B38′, 7-{4-[4-(1-Methyl-2-oxo-1,2,3,4-tetrahydro-quinolin-8-yl)-piperazin-1-yl]-butoxy}-1H-[1,8]naphthyridin-2-one] the Emax at 1 µM (Table 2) was 46%.
For CCc1ccccc1N1CCN(CCCCOc2ccc3c(n2)NC(=O)CC3(C)C)CC1 [Example D23, 7-{4-[4-(2-Ethyl-phenyl)-piperazin-1-yl]-butoxy}-4,4-dimethyl-3,4-dihydro-1H-[1,8]naphthyridin-2-one], the Emax at 1 µM (Table 1) was 33%.
In the case of CC1(C)CC(=O)Nc2nc(OCCCCN3CCN(c4cccc5c4CCCC5)CC3)ccc21 [Example D18, 4,4-Dimethyl-7-{4-[4-(5,6,7,8-tetrahydro-naphthalen-1-yl)-piperazin-1-yl]-butoxy}-3,4-dihydro-1H-[1,8]naphthyridin-2-one], the Emax at 1 µM (Table 1) is reported as 37%.
O=C1CCc2cccc(N3CCN(CCCCOc4ccc5ccc(=O)[nH]c5n4)CC3)c2C1 [Example B40, 7-{4-[4-(7-Oxo-5,6,7,8-tetrahydro-naphthalen-1-yl)-piperazin-1-yl]-butoxy}-1H-[1,8]naphthyridin-2-one] gave an Emax at 1 µM (Table 1) of 36%.
CC(F)(F)c1ccccc1N1CCN(CCCCOc2ccc3ccc(=O)[nH]c3n2)CC1 [Example B17, 7-(4-{4-[2-(1,1-Difluoro-ethyl)-phenyl]-piperazin-1-yl}-butoxy)-1H-[1,8]naphthyridin-2-one] gave an Emax at 1 µM (Table 1) of 43%.
In the case of CC1(C)Cc2ccc(CCCCCN3CCN(c4cccc(Cl)c4Cl)CC3)nc2NC1=O [Example D12, 7-{5-[4-(2,3-Dichloro-phenyl)-piperazin-1-yl]-pentyl}-3,3-dimethyl-3,4-dihydro-1H-[1,8]naphthyridin-2-one], the Emax at 1 µM (Table 1) is reported as 3%.
In the case of O=c1ccc2ccc(OCCCCN3CCN(c4cccc5c4CCCC5)CC3)nc2[nH]1 [Example B33, 7-{4-[4-(5,6,7,8-Tetrahydro-naphthalen-1-yl)-piperazin-1-yl]-butoxy}-1H-[1,8]naphthyridin-2-one], the Emax at 1 µM (Table 1) is reported as 26%.
For CN1CCCc2c1cccc2N1CCN(CCCCOc2ccc3ccc(=O)[nH]c3n2)CC1 [Example B28′, 7-{4-[4-(1-Methyl-1,2,3,4-tetrahydro-quinolin-5-yl)-piperazin-1-yl]-butoxy}-1H-[1,8]naphthyridin-2-one], the Emax at 1 µM (Table 2) was 44%.
Molecule CN1Cc2ccc(OCCCCN3CCN(c4cccc(Cl)c4Cl)CC3)nc2NC1=O [Example F7, 7-{4-[4-(2,3-Dichloro-phenyl)-piperazin-1-yl]-butoxy}-3-methyl-3,4-dihydro-1H-pyrido[2,3-d]pyrimidin-2-one] has an Emax at 1 µM (Table 1) of 11%.
Work on O=C1CCc2ccc(OCCCCN3CCN(c4cccc5nsnc45)CC3)nc2N1 [Example A30′, 7-[4-(4-Benzo[1,2,5]thiadiazol-4-yl-piperazin-1-yl)-butoxy]-3,4-dihydro-1H-[1,8]naphthyridin-2-one] yielded an Emax at 1 µM (Table 2) of 41%.
O=c1ccc2ccc(OCCCCN3CCN(c4ccc(F)cc4Cl)CC3)nc2[nH]1 [Example B23, 7-{4-[4-(2-Chloro-4-fluoro-phenyl)-piperazin-1-yl]-butoxy}-1H-[1,8]naphthyridin-2-one] gave an Emax at 1 µM (Table 1) of 15%.
Work on O=C1CCc2ccc(CCCCCN3CCN(c4cccc5ccccc45)CC3)nc2N1 [Example C13, 7-[5-(4-Naphthalen-1-yl-piperazin-1-yl)-pentyl]-3,4-dihydro-1H-[1,8]naphthyridin-2-one] yielded an Emax at 1 µM (Table 1) of 14%.
CC(=O)c1c(F)cccc1N1CCN(CCCCOc2ccc3c(n2)NC(=O)CC3)CC1 [Example A30, 7-{4-[4-(2-Acetyl-3-fluoro-phenyl)-piperazin-1-yl]-butoxy}-3,4-dihydro-1H-[1,8]naphthyridin-2-one] gave an Emax at 1 µM (Table 1) of 11%.
O=C1CCc2ccc(OCCCCN3CCN(c4cc(Cl)ccc4Cl)CC3)nc2N1 [Example A12, 7-{4-[4-(2,5-Dichloro-phenyl)-piperazin-1-yl]-butoxy}-3,4-dihydro-1H-[1,8]naphthyridin-2-one] was tested, and the Emax at 1 µM (Table 1) was 11%.
O=c1ncc2ccc(OCCCCN3CCN(c4cccc5c4OCCC5)CC3)nc2[nH]1 [Example E1′, 7-[4-(4-Chroman-8-yl-piperazin-1-yl)-butoxy]-1H-pyrido[2,3-d]pyrimidin-2-one] was tested, and the Emax at 1 µM (Table 2) was 12%.
With CCN1CCCc2c1cccc2N1CCN(CCCCOc2ccc3c(n2)NC(=O)CC3)CC1 [Example A33′, 7-{4-[4-(1-Ethyl-1,2,3,4-tetrahydro-quinolin-5-yl)-piperazin-1-yl]-butoxy}-3,4-dihydro-1H-[1,8]naphthyridin-2-one] the Emax at 1 µM (Table 2) was 18%.
